These compounds were tested on L1.2 (assay: Cytotoxicity against CCR4 transfected L1.2 cells (murine pre-B cells)). Details: Mus musculus.
Format: functional, cell-based

How did the IC50 turn out when `O=C([C@H]1CCCCN1)N1CCN(c2nccc(NCc3ccc(Cl)cc3Cl)n2)CC1` was run?
Its IC50 is over 100000 nM.

What follows are compounds tested against T1, C-C chemokine receptor type 4 (Homo sapiens, UniProt P51679) (assay: Calcium mobilization mediated by CCR4 receptor in CEMS529 cells by FLIPR). Details: not given.
T1 sequence (P51679 whole entry): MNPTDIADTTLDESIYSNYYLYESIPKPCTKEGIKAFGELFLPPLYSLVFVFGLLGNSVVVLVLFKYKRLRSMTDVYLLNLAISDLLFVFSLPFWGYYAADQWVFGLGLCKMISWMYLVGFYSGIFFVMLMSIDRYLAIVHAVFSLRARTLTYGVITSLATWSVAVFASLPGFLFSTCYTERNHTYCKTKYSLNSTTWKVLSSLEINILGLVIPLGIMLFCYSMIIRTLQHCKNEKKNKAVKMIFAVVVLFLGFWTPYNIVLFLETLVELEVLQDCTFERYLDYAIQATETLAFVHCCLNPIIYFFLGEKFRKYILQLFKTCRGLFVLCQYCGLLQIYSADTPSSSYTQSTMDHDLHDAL
Format: functional, cell-based

Which IC50 does the source give for `O=C([C@H]1CCCCN1)N1CCN(c2nccc(NCc3ccc(Cl)cc3Cl)n2)CC1` here?
Its IC50 is 10 nM.

Each compound was assayed against T1, C-C chemokine receptor type 4 (assay: Displacement of [125I]TARC from human CCR4 receptor transfected in HEK293 cells). Details: not given.
Format: cell-based

`CN1CCCC(C(=O)N2CCN(c3ccnc(NCc4ccc(Cl)cc4Cl)n3)CC2)C1` (stereo not drawn) was tested. Which IC50 did it give?
Its IC50 is 300 nM.

`O=C(C1CCNCC1)N1CCN(c2nccc(NCc3ccc(Cl)cc3Cl)n2)CC1` was tested. Which IC50 did it give?
Its IC50 is over 10000 nM.

`CN1CCCC(C(=O)NCCCNc2nccc(OCc3ccc(Cl)cc3Cl)n2)C1` (stereo not drawn) was tested. Which IC50 did it give?
Its IC50 is over 10000 nM.

For `O=C(Cc1cccnc1)N1CCN(c2nccc(OCc3ccc(Cl)cc3Cl)n2)CC1`, which IC50 is on record?
The IC50 was over 10000 nM.

For `O=C(C1CCCNC1)N1CCN(c2nccc(NCc3ccc(Cl)cc3Cl)n2)CC1` (stereo not drawn), which IC50 is on record?
The IC50 was 800 nM.

`CN1CCCC(C(=O)N2CCN(c3nccc(NCc4ccc(Cl)cc4Cl)n3)CC2)C1` (stereo not drawn) was tested. Which IC50 did it give?
The IC50 was 700 nM.

With `Cn1cnc(CC(=O)N2CCN(c3nccc(OCc4ccc(Cl)cc4Cl)n3)CC2)c1` as the compound, how does the IC50 read?
The IC50 was over 10000 nM.

`O=C([C@H]1CCCN1)N1CCN(c2nccc(NCc3ccc(Cl)cc3Cl)n2)CC1` was tested. Which IC50 did it give?
The IC50 was 60 nM.

For `O=C(C1CNC1)N1CCN(c2nccc(NCc3ccc(Cl)cc3Cl)n2)CC1`, which IC50 is on record?
Its IC50 is over 10000 nM.

Which IC50 does the source give for `CC(C)[C@@H](CNc1nccc(OCc2ccc(Cl)cc2Cl)n1)NC(=O)C1CCCN(C)C1` (stereo partly drawn) here?
Its IC50 is 5600 nM.

For `CN1CCCC(C(=O)N2CCN(c3nccc(OCc4ccc(Cl)cc4Cl)n3)CC2)C1` (stereo not drawn), which IC50 is on record?
Its IC50 is 1200 nM.

With `O=C(c1cccnc1)N1CCN(c2nccc(OCc3ccc(Cl)cc3Cl)n2)CC1` as the compound, how does the IC50 read?
Its IC50 is over 10000 nM.

`O=C([C@@H]1CCCCN1)N1CCN(c2nccc(NCc3ccc(Cl)cc3Cl)n2)CC1` was tested. Which IC50 did it give?
Its IC50 is 1000 nM.

Which IC50 does the source give for `CN1CCCC(C(=O)NCCNc2nccc(OCc3ccc(Cl)cc3Cl)n2)C1` (stereo not drawn) here?
The IC50 was over 10000 nM.

With `O=C([C@H]1CCCCN1)N1CCN(c2nccc(NCc3ccc(Cl)cc3Cl)n2)CC1` as the compound, how does the IC50 read?
Its IC50 is 50 nM.

The compounds below were run on Mus musculus (assay: In vivo efficacy against allergic lung inflammation in BABL/c mice administered sc). Details: not given.
Format: functional

`O=C([C@H]1CCCCN1)N1CCN(c2nccc(NCc3ccc(Cl)cc3Cl)n2)CC1` was tested. Which ED50 did it give?
The ED50 was 30 mg/kg.

From ChEMBL document CHEMBL1148558, “Optimization of CCR4 antagonists: side-chain exploration” (Bioorg Med Chem Lett, 2006)
